Consider four compounds from paper PMC12537910, “Mosquito salivary sialokinin reduces monocyte activation and chikungunya virus-induced inflammation via neurokinin receptors” (Nature Communications, 2025).

“And” between values parts separate entries of the source, which are not always exact repeats. Equal entries are not always repeated. No end group written: not given here.

Common to all, as to format: cell-based
One test has as its system Akt. Kind of test: Western blot P-Akt/Akt, human monocytes. The following applies: for effect on sialokinin-stimulated phosphorylation of Akt: antagonist pre-treatment. As for the experimental part:
(§1) DEG analysis was performed using edgeR, with multiple testing corrected via the Benjamini–Hochberg FDR method. […] Relative expression levels of P-PI3K/PI3K (n = 4 biological replicates) and P-Akt/Akt (n = 5 biological replicates) in monocytes at the 20-min time point were quantified with ImageJ. Levels are expressed as fold change relative to the non-treated controls. Bar graphs represent the mean ± standard deviation (SD). […] CD169 levels at 24 h post-treatment were measured by mean fluorescence intensity (MFI) and expressed as fold change relative to non-treated controls. Statistical comparisons were performed using paired two-tailed t-test or Wilcoxon signed-rank test, depending on data distribution.
(§2) Freshly purified human monocytes and six-day-differentiated MDMs ([…] cells/well) were incubated with or without sialokinin peptides in complete IMDM supplemented with 10% (vol/vol) HS (Sigma-Aldrich) and 1% (vol/vol) penicillin-streptomycin. Untreated monocytes and MDMs served as no-treatment controls.
(§3) To detect the phosphorylation status of PI3K/Akt kinases following sialokinin stimulation, cells were lysed with lysis buffer (Cell Signaling Technology) containing 2 mM PMSF. Lysates were separated by SDS-PAGE and subjected to western blotting using the following antibodies: P-PI3K (p85; Tyr458/p55; Tyr199, Cell Signaling Technology, 1:2000), PI3K (p85, Cell Signaling Technology, 1:2000), P-Akt (Ser473, Cell Signaling Technology, 1:2000), and Akt (Cell Signaling Technology, 1:2000). Signal intensities were visualized using a ChemiDoc imaging system (Bio-Rad) and quantified using Image Lab software version 6.0.1 (Bio-Rad).

For another test, the system named is primary human monocytes. Briefly: CD169 expression after antagonist/inhibitor pre-treatment and sialokinin, monocytes. The settings on record: for CD 169 expression (MFI): monocytes 24 h, n = 5; for effect on sialokinin-mediated downregulation of CD169: pre-treatment 30 min before sialokinin, monocytes. As for the experimental part:
as §1, §2
Following harvesting, human monocytes and MDMs were specifically stained for the surface markers: CD45, CD14, CCR2, HLA-DR, CD16, CD11b, and CD169 (for monocytes); or CD45, CD14, HLA-DR, CD64, CD86, CD163, CD206, and CD169 (for MDMs). Dead cells were excluded by staining with the LIVE/DEAD Fixable Aqua Dead Cell Stain Kit (Life Technologies). The stained cells were subsequently incubated with FACS lysing solution (BD Biosciences) to lyse the red blood cells. Data were acquired on a Fortessa flow cytometer (BD Biosciences) with BD FACSDiva software version 9.0. Data analysis was performed using FlowJo version 9.3.2 (Tree Star, Inc.).

The next test has as its system PI3K. Kind of test: Western blot P-PI3K/PI3K, human monocytes. The following applies: for effect on sialokinin-stimulated phosphorylation of PI3K: antagonist pre-treatment. Here is the method:
as §1, §2, §3
Background: In western blotting, separated proteins are transferred to a membrane and probed.

The target in test [1] is T1, human NK1R (Homo sapiens, UniProt P25103).
T1 construct: expressed in transfected cells; host or cells: CHO (CHO-K1) cells, stably transfected; gift from Dr Shinya Oishi, Kyoto University
T1 sequence (P25103 whole entry): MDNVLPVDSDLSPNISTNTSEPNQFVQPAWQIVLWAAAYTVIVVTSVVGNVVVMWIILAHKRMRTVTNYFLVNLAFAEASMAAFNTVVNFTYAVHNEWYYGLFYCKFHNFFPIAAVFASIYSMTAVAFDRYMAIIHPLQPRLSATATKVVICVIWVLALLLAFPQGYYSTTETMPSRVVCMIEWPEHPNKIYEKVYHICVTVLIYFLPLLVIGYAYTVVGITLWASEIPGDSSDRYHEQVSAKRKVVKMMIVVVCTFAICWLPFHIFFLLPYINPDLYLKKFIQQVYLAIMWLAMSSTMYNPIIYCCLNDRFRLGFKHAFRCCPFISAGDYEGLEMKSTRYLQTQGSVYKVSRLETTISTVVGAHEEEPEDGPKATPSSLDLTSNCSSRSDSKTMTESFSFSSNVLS
An excerpt: (§4) Supplementary Fig. 1: Molecular properties of sialokinin and its binding affinities to human neurokinin
(§5) (1 picture or pasted object on this page, not shown here)

The target in the next test is T2, human NK3R (Homo sapiens, UniProt P29371).
T2 construct: expressed in transfected cells; host or cells: CHO (CHO-K1) cells, stably transfected; gift from Dr Shinya Oishi, Kyoto University
T2 sequence (P29371 1-465): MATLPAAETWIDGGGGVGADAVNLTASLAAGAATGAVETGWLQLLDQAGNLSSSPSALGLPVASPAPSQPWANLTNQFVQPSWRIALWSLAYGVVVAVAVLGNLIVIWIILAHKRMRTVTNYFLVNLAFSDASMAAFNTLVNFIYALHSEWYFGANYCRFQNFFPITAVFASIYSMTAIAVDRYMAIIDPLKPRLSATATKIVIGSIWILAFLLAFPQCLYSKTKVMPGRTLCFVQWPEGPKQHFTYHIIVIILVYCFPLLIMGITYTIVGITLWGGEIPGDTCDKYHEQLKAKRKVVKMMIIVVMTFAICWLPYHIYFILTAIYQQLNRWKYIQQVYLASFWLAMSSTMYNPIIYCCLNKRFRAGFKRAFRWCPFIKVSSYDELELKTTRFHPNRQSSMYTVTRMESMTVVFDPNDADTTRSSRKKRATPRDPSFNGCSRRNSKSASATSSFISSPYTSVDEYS
Briefly: Calcium flux assay, CHO cells expressing human NK3R. The settings on record: CHO-K1 cells expressing human NK3R; FLIPR; mean ± SEM of three independent experiments in triplicate; read-out: EC50 (peak calcium response). Here is the method: (§6) We assessed the binding affinity of sialokinin I, the predominant form in Aedes saliva, for human NK receptors using a calcium flux assay.
(§7) Calcium flux assay was carried out on CHO cells stably transfected with one of the human NK receptors (NK1R, NK2R, or NK3R). CHO cells were seeded at a density of 70,000 cells/well in 100 µL of Ham’s F-12 media in a black 96-well clear-bottom plate (Greiner). After overnight incubation, the media was replaced with Calcium 6 assay dye from Molecular Devices (1:1 dilution with buffer solution of 1× HBSS containing 20 mM HEPES) followed by incubation for 2 h at 37 °C for the absorption of dye into the cytoplasm. The intracellular calcium ion flux analysis was performed at different concentrations of sialokinin (tenfold dilution) using a FLIPR Tetra instrument (Molecular Devices). Fluorescence signal was recorded at excitation and emission wavelengths of 485 nm and 535 nm, respectively. The change in fluorescence is presented as the percent change with respect to baseline fluorescence. EC50 values were determined from dose-response curves plotted using Prism 5 (GraphPad).
as §4, §5

For a further test, the target named is T3, human NK2R (Homo sapiens, UniProt P21452).
T3 construct: expressed in transfected cells; host or cells: CHO (CHO-K1) cells, stably transfected; gift from Dr Shinya Oishi, Kyoto University
T3 sequence (P21452 1-398): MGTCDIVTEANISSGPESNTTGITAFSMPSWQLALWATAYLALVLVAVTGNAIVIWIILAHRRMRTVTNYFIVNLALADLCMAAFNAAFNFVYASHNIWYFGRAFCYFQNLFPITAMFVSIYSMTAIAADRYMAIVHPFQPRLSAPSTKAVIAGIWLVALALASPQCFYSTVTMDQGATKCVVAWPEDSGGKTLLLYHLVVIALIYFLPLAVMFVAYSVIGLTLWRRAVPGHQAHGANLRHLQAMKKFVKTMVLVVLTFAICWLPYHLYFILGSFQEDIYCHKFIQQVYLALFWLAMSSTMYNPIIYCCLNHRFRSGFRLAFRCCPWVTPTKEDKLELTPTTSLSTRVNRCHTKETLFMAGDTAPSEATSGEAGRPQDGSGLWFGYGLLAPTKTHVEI
Kind of test: Calcium flux assay, CHO cells expressing human NK2R. The following applies: CHO-K1 cells expressing human NK2R; FLIPR; mean ± SEM of three independent experiments in triplicate; read-out: EC50 (peak calcium response). Here is the method:
as §6, §7, §4, §5

The target of test [2] is T1, human NK1R. Briefly: Calcium flux assay, CHO cells expressing human NK1R. The settings on record: CHO-K1 cells expressing human NK1R; FLIPR; mean ± SEM of three independent experiments in triplicate; read-out: EC50 (peak calcium response). As for the experimental part: as §6, §7, §4, §5
[3] abbreviates: GR-159897 + sialokinin, individual replicates.

As for `COc1ccccc1CN[C@H]1C2CCN(CC2)[C@H]1C(c1ccccc1)c1ccccc1` [CP-96345], in the test with Akt, the “effect on sialokinin-stimulated phosphorylation of Akt” value is “reduced”. Further, the “CD 169 expression (MFI)” value is 387 MFI and 396 MFI and 194 MFI and 919 MFI and 1966 MFI in the test on primary human monocytes (CP-96345 + sialokinin, individual replicates); 586 MFI and 529 MFI and 236 MFI and 1225 MFI and 3060 MFI in the test with primary human monocytes (CP-96345 inhibitor only, individual replicates). In addition, the “effect on sialokinin-mediated downregulation of CD169” value (from here on “effect … of CD169”) in the test on primary human monocytes was “only partially neutralized”. For the same compound, the “effect on sialokinin-stimulated phosphorylation of PI3K” value in the test with PI3K is reported as “reduced”. Further, at human NK1R [1], the “effect on Emax of sialokinin at NK1R” value is “without affecting the Emax value”.

Consider `COC1(C[S@@+]([O-])c2ccccc2)CCN(CCc2c[nH]c3ccc(F)cc23)CC1` [GR-159897], for which, in the test on Akt, the “effect on sialokinin-stimulated phosphorylation of Akt” value is recorded as “reduced”. For the same compound, the “P-Akt/Akt (expression relative to untreated control)” value with Akt (pre-treatment with NK2R antagonist then sialokinin, 20 min, individual replicates, n = 5) is 0.9906 and 1.222 and 1.192 and 0.816 and 0.7836. In the test with primary human monocytes (setting [3]), the “CD169 relative fold change” value was 0.8629 and 0.8036 and 0.6381 and 0.8197 and 0.5757; the “CD 169 expression (MFI)” value is 1530 MFI and 1669 MFI and 977 MFI and 2300 MFI and 1731 MFI. The “CD 169 expression (MFI)” value with primary human monocytes (GR-159897 inhibitor only, individual replicates) is 1773 MFI and 2077 MFI and 1531 MFI and 2806 MFI and 3007 MFI. In addition, in the test with primary human monocytes, the “effect … of CD169” value is “only partially neutralized”. In addition, in the test on PI3K, the “effect on sialokinin-stimulated phosphorylation of PI3K” value is “reduced”. Besides, the “P-PI3K/PI3K (expression relative to untreated control)” value with PI3K (pre-treatment with NK2R antagonist then sialokinin, 20 min, individual replicates, n = 4) was 0.877 and 0.977 and 0.987 and 0.967.

In the case of `O=c1cc(N2CCOCC2)oc2c(-c3ccccc3)cccc12` [LY-294002], the “CD 169 expression (MFI)” value with primary human monocytes (LY-294002 + sialokinin, individual replicates) was 182 MFI and 164 MFI and 106 MFI and 91.9 MFI and 143 MFI; in the test with primary human monocytes (LY-294002 inhibitor only, individual replicates), 216 MFI and 280 MFI and 107 MFI and 103 MFI and 164 MFI. Further, the “effect … of CD169” value with primary human monocytes was “completely blocked”.

Turning to NTGDKFYGLM-NH2 [Sialokinin I], the EC50 at human NK3R was 1.29 ± 0.281 nM; at human NK2R, 0.288 ± 0.107 nM; at human NK1R [2], 0.052 ± 0.028 nM.

What is called EC50 is the midpoint of the concentration-response curve.
